Earlier results as cited in patent publication US20120328543A1, “USE OF A CATIONIC, ADVANTAGEOUSLY AMPHOTERIC, SURFACTANT FOR THE PREPARATION OF AN ANTIFUNGAL SOLUTION THAT CAN BE APPLIED TO THE NAIL” (priority 2009, published 2012).

What was measured:
[1] = not given; remark: listed apart in the source

SMILES: CN(C/C=C/C#CC(C)(C)C)Cc1cccc2ccccc12.Cl [Terbinafine HCl, terbinafine hydrochloride]
- solubility in water: 5.32 µg/mL
- pKa [1]: 7.10
